What all share (assay type): cell-based
In test [1] the test system is PAI-1 mRNA in human coronary artery smooth muscle cells (CASMC). As to the kind of experiment: PAI-1 mRNA in CASMC. The settings on record: for IC50: Homo sapiens. The method, then:
(§1) Primary culture of human coronary artery smooth muscle cells (CASMC) (commercially available from Cambrex, Walkersville, Md.) were grown in smooth muscle growth medium SmGM-2 (commercially available from Lonza Bioscience) containing 5.5 mM glucose, 5% FBS, 50 μg/ml gentamicin, 50 ng/ml amphotericin-B, 5 μg/ml insulin, 2 ng/ml human recombinant fibroblast growth factor (hFGF), and 0.5 ng/ml human recombinant epidermal growth factor (hEGF) at 37° C. in a humidified 5% CO2-95% air atmosphere. Cells were grown to >80% confluence and used within five passages.
(§2) Real-time reverse transcription-PCR was performed with a MyiQ Real-Time PCR Detection System (BioRad, Hercules, Calif.). Each sample has a final volume of 25 μl containing 100 ng of cDNA, […] each of the forward and reverse PCR primers and […] of the TaqMan™ probe for the gene of interest (Applied Biosystems, Foster City, Calif.). Temperature conditions consisted of a step of 5 minutes at 95° C., followed by 40 cycles of 60° C. for 1 minute and 95° C. for 15 seconds. Data was collected during each extension phase of the PCR reaction and analyzed with the software package (BioRad, Hercules, Calif.). Threshold cycles were determined for each gene. […]

The subject of test [2] is Human promyelocytic leukemia (HL60) cells. As to the kind of experiment: HL-60 Differentiation. The settings on record: HL-60, 96 h, four days incubation, NBT, absorbance 570 nm. The method, then:
Human promyelocytic leukemia (HL60) cells were obtained from the American Type Culture Collection (ATCC Cat. # CCL-240, Manassas, Va.). Cells were maintained in RPMI 1640 medium (commercially available from Invitrogen, Carlsbad, Calif.) containing 10% fetal bovine serum (commercially available from Invitrogen, Carlsbad, Calif.) at 37° C. with 5% CO2. Cells were passaged weekly and were not allowed to become >90% confluent. For the assay, cells were plated at 5×10^5 cells per well in 200 uL media. Test compounds were diluted in media in concentrations between 10^−6-10^−10 M and then added to the appropriate wells. Cells were then incubated for four days at 37° C. in 5% CO2 atmosphere. After incubation, media was aspirated from each well and 75 uL of NBT solution (nitroblue tetrazolinium: 200 ng/mL PMA (phorbol 12-myrystate 13-acetate) and 2 mg/ml NBT (nitroblue tetrazolium) in distilled H2O) was added to each well followed by further incubation for 2 hours at 37° C. Following incubation, 150 uL lysis buffer (225 mL dimethylformamide, 67.5 g SDS). PMA stock solution (2 mg/ml in ethanol) was added to each well and the plate was allowed to sit at room temperature for 4 hours. HL-60 cell differentiation was assayed, Effect of each compound on cell growth was examined as a function of time; absorbance in each well was measured at 570 nm.

Test [3] relates to Renin mRNA in As4.1 cells. As to the kind of experiment: Renin mRNA in As4.1 cells transfected with pcDNA-hVDR (real-time RT-PCR). The method, then:
As4.1 cells (ATCC, Manassas, Va.) were cultured in Dulbecco's Modified Eagle Medium DMEM (commercially available from Invitrogen, Carlsbad, Calif.) with 10% fetal bovine serum at 37° C. in a humidified 5% CO2-95% air atmosphere. C3;ells were transfected with the pcDNA-hVDR plasmid (provided by Yan Chun Li, University of Chicago) by LIPOFECTAMINE™ 2000 (Invitrogen, Carlsbad, Calif.). siRNA was transfected with the pcDNA-hVDR plasmid by LIPOFECTAMINE™ 2000 according to the manufacturer's protocol. Twenty-four hours after transfection, cells were treated with test agents.
Real-time reverse transcription-PCR was performed with a MyiQ Real-time PCR Detection System (commercially available from BioRad, Hercules, Calif.). […] TaqMan™ probes that were 5′ labeled with the reporter 6-carboxyfluorescein (FAM) and 3′ labeled with the quencher tetramethylrhodamine (TAMRA) were used and the primer and probe sets were obtained from Applied Biosystems (Foster City, Calif.). Temperature conditions consisted of a step of 5 minutes at 95° C., followed by 45 cycles of 60° C. for 1 minute and 95° C. for 15 seconds. Data was collected during each extension phase of the PCR reaction and analyzed with the accompanying software package (BioRad, Hercules, Calif.). Threshold cycles were determined for each gene.
For orientation: In qPCR the cycle at which signal appears reflects the starting amount.

The subject of test [4] is VDR (VDRE-luciferase-reporter construct). Kind of test: VDRE Reporter Gene Assay in HEK cells with stable expression of VDR. The settings on record: Homo sapiens, HEK293, 24 hours. The method, then: Compound activity was also assessed by looking at a Vitamin D Response Element (VDRE) reporter gene assay, Human Embryonic Kidney cells (HEK cells) with a stable expression of VDR were cultured in 96-well plates at ˜4×10^5 cells/mL (100 μL/well) in DMEM medium containing 10% fetal calf serum. Cells were transfected with 0.2 μg per well of a VDRE-luciferase-reporter construct (from Y. Li, University of Chicago) and then treated with test agents at indicated concentrations for 24 hours. The luciferase activity was then measured following the manufacturer's instructions (Promega, Madison, Wis.).
In general terms: A reporter such as luciferase makes a cellular process visible.

Test [5] has as its system Thrombomodulin mRNA in human coronary artery smooth muscle cells (CASMC). Kind of test: Thrombomodulin mRNA in CASMC. The settings on record: for EC50: Homo sapiens. The method, then:
as §1, §2

In test [6] the test system is Thrombospondin mRNA in human coronary artery smooth muscle cells (CASMC). Kind of test: Thrombospondin mRNA in CASMC. The settings on record: for IC50: Homo sapiens. The method, then: as §1, §2

One may read the EC50 as the concentration that produces a half-maximal response. As a reminder, the IC50 is the concentration that gives 50% inhibition. Lower therefore signals greater potency. With `C=C1[C@H](O)CC(=C/C=C2\CCC[C@]3(C)[C@@H]([C@H](C)COC(=O)C(C)(C)OC(C)=O)CC[C@@H]23)C[C@H]1O` [Example 6, (2S)-2-[(1R,3R,7E,17β)-1,3-dihydroxy-2-methylene-9,10-secoestra-5,7-dien-17-yl]propyl 2-(acetyloxy)-2-methyl propanoate], in test [1], the “PAI-1 mRNA in CASMC IC50” value is “inactive”. In addition, the EC50 in test [2] worked out at 12 nM; in test [4], 1.3 nM. Moreover, the figures for the IC50 in test [3] and in test [6] were 18.6 nM and 1.3 nM, respectively. For the same compound, the “Thrombomodulin mRNA in CASMC EC50” value in test [5] is “inactive”.
On to `C=C1[C@H](O)CC(=C/C=C2\CCC[C@]3(C)[C@@H]([C@H](C)CC[C@H](C)C(C)C)CC[C@@H]23)C[C@H]1O` [Example 7, (1R,3R,7E)-2-methylene-17-[(1R,4S)-1,4,5-trimethylhexyl]-9,10-secoestra-5,7-diene-1,3-diol], for which the IC50 in test [1], in test [3] and in test [6] was 0.1 nM each time. Also, the EC50 in test [2] is 12.5 nM; in test [4], 12.2 nM; in test [5], 0.6 nM.
For the compound `C=C1[C@H](O)CC(=C/C=C2\CCC[C@]3(C)[C@@H]([C@H](C)OCCC(C)(C)O)CC[C@@H]23)C[C@H]1O` [Example 8, (1R,3R,7E,17β)-17-[(1S)-1-(3-hydroxy-3-methylbutoxy)ethyl]-2-methylene-9,10-secoestra-5,7-diene-1,3-diol], the 50% inhibitory concentration (IC50) turned out to be 0.02 nM in test [1], 0.3 nM in test [3] and 0.05 nM in test [6]. In addition, the half-maximal effective concentration (EC50) is 31.5 nM in test [2], less than 0.01 nM in test [4] and 39.3 nM in test [5].
Consider `CC(C)[C@@H](C)CC[C@@H](C)[C@H]1CC[C@H]2/C(=C/C=C3C[C@@H](O)C[C@H](O)C3)CCC[C@]12C` [Example 9, (1R,3R,7E)-17-[(1R,4S)-1,4,5-trimethylhexyl]-9,10-secoestra-5,7-diene-1,3-diol], for which the half-maximal inhibitory concentration (IC50) in test [1] amounted to 0.1 nM; in test [6], 0.3 nM. Also, the 50% effective concentration (EC50) in test [2] was 434 nM; in test [4], greater than 10000 nM; in test [5], 0.1 nM. Further, in test [3], the “Renin mRNA in AS4.1 IC50” value was “inactive”.
`C=C1/C(=C\C=C2/CCC[C@]3(C)[C@@H]([C@H](C)C(C[C@@H](C)C(C)(C)OC)OC)CC[C@@H]23)C[C@@H](O)C[C@@H]1O` (stereo partly drawn) [Example 10, (1S,3R,5Z,7E,24R)-22,25-dimethoxy-9,1 0-secoergosta-5,7,10-triene-1,3-diol]: the concentration for half-maximal inhibition (IC50) in test [1] was 0.04 nM; in test [3], 3.9 nM; in test [6] it was 0.01 nM. For the same compound, the EC50 in test [2] turned out to be 621 nM; in test [4], 150 nM; in test [5], 0.2 nM.
Turning to `COC(C[C@@H](C)C(C)(C)OC)[C@@H](C)[C@H]1CC[C@H]2/C(=C/C=C3C[C@@H](O)C[C@H](O)C3)CCC[C@]12C` (stereo partly drawn) [Example 11, (1R,3R,7E,17β)-17-[(1S,4R)-2,5-dimethoxy-1,4,5-trimethylhexyl]-9,10-secoestra-5,7-diene-1,3-diol], the figures for the half-inhibitory concentration (IC50) in test [1], in test [3] and in test [6] were 0.01 nM, 0.002 nM and 0.01 nM, respectively. Also, the EC50 was 310 nM in test [2], 182 nM in test [4] and 28.4 nM in test [5].
Take `C=C1[C@H](O)CC(=C/C=C2\CCC[C@]3(C)[C@@H]([C@H](C)COc4ccccc4)CC[C@@H]23)C[C@H]1O` [Example 12, (1R,3R,7E,17β)-2-methylene-17-[(1S)-1-methyl-2-phenoxyethyl]-9,10-secoestra-5,7-diene-1,3-diol]: the concentration for half-maximal inhibition (IC50) was found to be 11.5 nM in test [1], 0.2 nM in test [3] and 0.02 nM in test [6]. The results for the EC50 in test [2], in test [4] and in test [5] were 0.2 nM, 16.9 nM and 0.1 nM, respectively.
For `C=C1[C@H](O)C/C(=C/C=C2\CCC[C@]3(C)[C@@H]([C@H](C)CCCC(C)(C)O)CC[C@@H]23)C[C@@H]1F` [Example 13, (1R,3S,5Z,7E,17β)-3-fluoro-17-[(1R)-5-hydroxy-1,5-dimethylhexyl]-2-methylene-9,10-secoestra-5,7-dien-1-ol], the IC50 in test [1] is 0.01 nM; in test [3], 0.9 nM; in test [6] it was 0.03 nM. The EC50 in test [2] stood at 52 nM; in test [4], 276 nM; in test [5], 80.2 nM.
On to `C=C1[C@H](O)CC(=C/C=C2\CCC[C@]3(C)[C@@H]([C@H](C)COC(=O)C(C)(C)O)CC[C@@H]23)C[C@H]1O` [Example 14, (2S)-2-[(1R,3R,7E,17β)-1,3-dihydroxy-2-methylene-9,10-secoestra-5,7-dien-17-yl]propyl 2-hydroxy-2-methylpropanoate], for which the half-inhibitory concentration (IC50) in test [1] amounted to 0.04 nM; in test [3] it was 0.03 nM; in test [6] it was 0.02 nM. In addition, the results for the EC50 in test [2], in test [4] and in test [5] were 9 nM, 0.6 nM and 5.1 nM, respectively.
In the case of `C[C@H](CC[C@@H](C)C(C)(C)O)[C@H]1CC[C@H]2/C(=C/C=C3C[C@@H](O)C[C@H](O)C3)CCC[C@]12C` [Example 15, (1R,3R,7E,17β)-17-[(1R,4R)-5-hydroxy-1,4,5-trimethylhexyl]-9,10-secoestra-5,7-diene-1,3-diol], the IC50 in test [1] was determined as 0.01 nM; in test [3] it was 0.04 nM. The figures for the concentration for a half-maximal effect (EC50) in test [2], in test [4] and in test [5] were 1.2 nM, 0.4 nM and 10.7 nM, respectively. The “Thrombospondin mRNA in CASMC IC50” value in test [6] is “inactive”.
For the compound `C=C1[C@H](CO)C/C(=C\C=C2/CCC[C@]3(C)[C@@H]([C@H](C)CCCC(C)(C)O)CC[C@@H]23)C[C@H]1O` [Example 16, (1R,3R,5E,7E,17β)-17-[(1R)-5-hydroxy-1,5-dimethylhexyl]-3-(hydroxymethyl)-2-methylene-9,10-secoestra-5,7-dien-1-ol], the EC50 amounted to 43 nM in test [2] and 71.7 nM in test [4]. Besides, in test [3], the IC50 was determined as 14.7 nM.
With `C=C1[C@H](CO)C/C(=C\C=C2/CCC[C@]3(C)[C@@H]([C@H](C)OCCC(C)(C)O)CC[C@@H]23)C[C@H]1O` [Example 17, (1R,3R,5E,7E,17β)-3-(hydroxymethyl)-17-[(1S)-1-(3-hydroxy-3-methylbutoxy)ethyl]-2-methylene-9,10-secoestra-5,7-dien-1-ol], the EC50 was 92.5 nM in test [2] and 153 nM in test [4]. The same compound came in with an IC50 in test [3] of 2.2 nM.
On the same counts, the results for `C=C1[C@H](O)C/C(=C\C=C2/CCC[C@]3(C)[C@@H]([C@H](C)CCCC(C)(C)O)CC[C@@H]23)C[C@@H]1F` [Example 18, (1R,3S,5E,7E,17β)-3-fluoro-17-[(1R)-5-hydroxy-1,5-dimethylhexyl]-2-methylene-9,10-secoestra-5,7-dien-1-ol] are 10 nM, 11.3 nM and 0.1 nM.

The values are drawn from patent publication US8377913B2, “Vitamin D receptor activators and methods of making” (AbbVie Inc., priority 2007, dated 2013).
